Experimental findings from ChEMBL document CHEMBL3774316, “Design, synthesis and anti-HIV-1 evaluation of hydrazide-based peptidomimetics as selective gelatinase inhibitors” (Bioorg Med Chem, 2016) are described below.

Bounds are passed on as bounds.

One data set addresses T1, Aminopeptidase N (Sus scrofa, UniProt P15145).
T1 sequence (P15145 whole entry): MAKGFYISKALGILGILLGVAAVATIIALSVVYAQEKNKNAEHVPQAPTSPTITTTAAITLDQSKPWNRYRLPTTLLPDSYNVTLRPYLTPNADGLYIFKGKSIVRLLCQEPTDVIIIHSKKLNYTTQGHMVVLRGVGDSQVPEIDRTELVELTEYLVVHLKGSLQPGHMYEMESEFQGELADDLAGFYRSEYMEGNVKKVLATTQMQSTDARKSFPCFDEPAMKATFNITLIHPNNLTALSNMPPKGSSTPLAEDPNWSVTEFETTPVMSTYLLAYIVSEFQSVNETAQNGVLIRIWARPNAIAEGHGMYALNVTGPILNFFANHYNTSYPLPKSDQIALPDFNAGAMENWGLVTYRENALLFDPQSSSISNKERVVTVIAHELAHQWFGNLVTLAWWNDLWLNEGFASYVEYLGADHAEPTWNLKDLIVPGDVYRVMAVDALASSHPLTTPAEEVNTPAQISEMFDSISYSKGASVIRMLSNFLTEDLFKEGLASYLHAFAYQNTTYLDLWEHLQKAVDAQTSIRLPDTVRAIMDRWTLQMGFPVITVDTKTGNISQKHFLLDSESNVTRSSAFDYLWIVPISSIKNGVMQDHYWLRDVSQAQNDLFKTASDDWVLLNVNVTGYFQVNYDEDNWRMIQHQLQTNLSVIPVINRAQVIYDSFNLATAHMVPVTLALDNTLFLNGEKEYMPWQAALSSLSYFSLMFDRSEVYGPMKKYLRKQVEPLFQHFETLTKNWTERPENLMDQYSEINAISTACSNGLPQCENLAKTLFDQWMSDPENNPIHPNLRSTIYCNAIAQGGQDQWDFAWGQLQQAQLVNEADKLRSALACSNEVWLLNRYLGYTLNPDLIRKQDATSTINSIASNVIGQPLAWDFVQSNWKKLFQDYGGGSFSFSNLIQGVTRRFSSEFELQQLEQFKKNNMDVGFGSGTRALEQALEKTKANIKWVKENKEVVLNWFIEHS
In words: Inhibition of porcine microsomal aminopeptidase N preincubated for 30 mins using L-Leu-p-nitroanilide as substrate by UV-VIS spectrophotometer.

The test system of data set [1] is Human immunodeficiency virus 1. Kind of data set: Antiviral activity against HIV1 74V infected in human C8166 cells assessed as reduction in p24 antigen level incubated for 4 hrs followed by cell plating for 72 hrs by ELISA method. It counts as functional, organism-based. The settings on record: Human immunodeficiency virus 1, 74V.
Data set [2] deals with 72 kDa type IV collagenase (Homo sapiens, UniProt P08253). In words: Inhibition of gelatinase A (unknown origin) after 30 mins using succinylated gelatin as substrate.
72 kDa type IV collagenase, sequence (P08253 whole entry): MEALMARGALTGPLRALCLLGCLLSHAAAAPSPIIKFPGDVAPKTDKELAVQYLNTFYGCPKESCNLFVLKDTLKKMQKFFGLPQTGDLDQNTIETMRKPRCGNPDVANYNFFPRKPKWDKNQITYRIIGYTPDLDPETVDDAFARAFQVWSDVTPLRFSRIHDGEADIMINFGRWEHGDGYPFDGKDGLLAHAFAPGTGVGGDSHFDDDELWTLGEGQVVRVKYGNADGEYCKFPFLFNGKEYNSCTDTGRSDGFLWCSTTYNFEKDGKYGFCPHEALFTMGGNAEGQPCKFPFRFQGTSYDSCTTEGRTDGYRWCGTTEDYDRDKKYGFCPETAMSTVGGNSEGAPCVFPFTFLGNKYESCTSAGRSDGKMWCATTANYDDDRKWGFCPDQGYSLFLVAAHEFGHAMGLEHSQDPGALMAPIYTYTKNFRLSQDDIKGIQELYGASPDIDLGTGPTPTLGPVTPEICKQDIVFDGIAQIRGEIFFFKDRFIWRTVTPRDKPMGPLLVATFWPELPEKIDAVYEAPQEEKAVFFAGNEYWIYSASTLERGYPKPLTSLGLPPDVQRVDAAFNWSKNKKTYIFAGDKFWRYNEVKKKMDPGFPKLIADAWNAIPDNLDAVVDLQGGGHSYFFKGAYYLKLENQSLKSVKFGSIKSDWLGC
Data set [3] in a line: Therapeutic index, ratio of CC50 for human C8166 cells to EC50 for HIV1 3B infected in human C8166 cells. It counts as cell-based. The conditions noted are these: read-out: Ratio CC50/EC50.
The test system of data set [4] is Human immunodeficiency virus 1. In words: Antiviral activity against HIV1 A17 infected in human C8166 cells assessed as reduction in p24 antigen level incubated for 4 hrs followed by cell plating for 72 hrs by ELISA method. It counts as functional, organism-based. The settings on record: Human immunodeficiency virus 1, A17, C8166.
The subject of data set [5] is Human immunodeficiency virus 1. In words: Antiviral activity against HIV1 3B infected in human C8166 cells assessed as reduction in p24 antigen level incubated for 2 hrs followed by cell plating for 72 hrs by ELISA method. The data set is classed as functional, organism-based. The settings on record: Human immunodeficiency virus 1, 3B.
The test system of data set [6] is Human immunodeficiency virus 1. In words: Antiviral activity against HIV1 3B infected in human C8166 cells assessed as cytopathic effect by counting the number of syncytia by microscopy. The data set is classed as functional, organism-based. The conditions noted are these: Human immunodeficiency virus 1, 3B.
A further data set has as its system C8166. Kind of data set: Cytotoxicity against human C8166 cells after 72 hrs by MTT assay. The data set is classed as functional. The settings on record: C8166, 72 h.

For `Cc1ccc(S(=O)(=O)N2CC3(C[C@H]2C(=O)N/N=C/c2ccc(N(C)C)cc2)SCCS3)cc1`, the figures for the IC50 (on Aminopeptidase N; in data set [2]) were more than 1000 µM and 5.52 µM, respectively. The EC50 in data set [1] came to 56.3 µM; in data set [4], 74 µM; in data set [5] it was 75.6 µM; in data set [6] it was 37.7 µM. Further, in data set [3], the selectivity ratio was more than 10.5. For the same compound, in the data set with C8166, the CC50 is more than 397 µM.
Consider `COc1ccccc1/C=N/NC(=O)[C@@H]1CC2(CN1S(=O)(=O)c1ccc(C)cc1)SCCS2`, for which the values for the IC50 (at Aminopeptidase N; in data set [2]) were more than 1000 µM and 28.5 µM, respectively. Besides, the EC50 was 30 µM in data set [1], 11.4 µM in data set [4], 69.6 µM in data set [5] and 51.1 µM in data set [6]. Also, the selectivity ratio in data set [3] was 7.6. The compound also returned a CC50 in the data set with C8166 of 388 µM.
As to `Cc1ccc(/C=N/NC(=O)[C@@H]2CC3(CN2S(=O)(=O)c2ccc(C)cc2)SCCS3)cc1`, the IC50 was more than 1000 µM on Aminopeptidase N and 36.8 µM in data set [2]. The 50% effective concentration (EC50) in data set [1] was more than 200 µM; in data set [4] it was more than 200 µM; in data set [5], 39.3 µM; in data set [6] it was 40.5 µM. Besides, the selectivity ratio in data set [3] is more than 10.4. In the data set on C8166, this compound came in with a CC50 of more than 421 µM.
As for `Cc1ccc(S(=O)(=O)N2CC3(C[C@H]2C(=O)N/N=C/c2ccccc2Cl)SCCS3)cc1`, the figures for the IC50 (against Aminopeptidase N; in data set [2]) were more than 1000 µM and 0.64 µM, respectively. Further, the EC50 in data set [1] worked out at 93.6 µM; in data set [4], 18.2 µM; in data set [5], 149 µM; in data set [6] it was 30.3 µM. Further, in data set [3], the selectivity ratio was more than 13.3. Besides, the CC50 with C8166 is more than 404 µM.
For `Cc1ccc(S(=O)(=O)N2CC3(C[C@H]2C(=O)N/N=C/c2cccc([N+](=O)[O-])c2)SCCS3)cc1`, the values for the IC50 (against Aminopeptidase N; in data set [2]) were more than 1000 µM and 1.05 µM, respectively. Besides, the EC50 in data set [1] was 5.07 µM; in data set [4] it was 9.94 µM; in data set [5], 3.89 µM; in data set [6], 16 µM. The selectivity ratio in data set [3] was more than 24.6. In the data set on C8166, this compound came in with a CC50 of more than 395 µM.
For `COc1cc(/C=N/NC(=O)[C@@H]2CC3(CN2S(=O)(=O)c2ccc(C)cc2)SCCS3)cc(OC)c1OC`, the IC50 on Aminopeptidase N was more than 1000 µM; in data set [2], 210 µM. Moreover, the EC50 in data set [1] turned out to be 96 µM; in data set [4], 38.7 µM; in data set [5] it was 65.1 µM; in data set [6], 38.5 µM. The selectivity ratio in data set [3] is 8.5. The same compound yielded a CC50 with C8166 of 327 µM.
For the compound `Cc1ccc(S(=O)(=O)N2CC3(C[C@H]2C(=O)N/N=C/c2ccccc2Br)SCCS3)cc1`, the IC50 against Aminopeptidase N is more than 1000 µM; in data set [2] it was 0.41 µM. The EC50 in data set [1] was found to be 30.6 µM; in data set [4] it was 18.3 µM; in data set [5], 33.4 µM; in data set [6] it was 28 µM. Besides, the selectivity ratio in data set [3] worked out at 6.3. Further, the CC50 with C8166 was 177 µM.
